Key:
[1] = results of clinical trials; cited from earlier work
[2] = tested on: TNKS1/2 (Tankyrase 1 or Tankyrase 2); conditions: compared with other PARP inhibitors, biochemical assay; cited from earlier work
[3] = biological target: recombinant poly(ADP-ribose) polymerase 2 (PARP2) (Homo sapiens, UniProt Q9UGN5); test: biochemical; conditions: inhibition of PARP2 enzyme activity, chemiluminescence
MDA-MB-436 cells = test: Growth inhibition assay against BRCA mutant human breast cancer MDA-MB-436 cell line (CCK-8, 7 days); type: cell-based
[4] = biological target: recombinant poly(ADP-ribose) polymerase 1 (PARP1) (Homo sapiens, UniProt P09874); test: biochemical; conditions: inhibition of PARP1 enzyme activity, chemiluminescence
recombinant poly(ADP-ribose) polymerase 1 (PARP1), sequence (P09874 whole entry): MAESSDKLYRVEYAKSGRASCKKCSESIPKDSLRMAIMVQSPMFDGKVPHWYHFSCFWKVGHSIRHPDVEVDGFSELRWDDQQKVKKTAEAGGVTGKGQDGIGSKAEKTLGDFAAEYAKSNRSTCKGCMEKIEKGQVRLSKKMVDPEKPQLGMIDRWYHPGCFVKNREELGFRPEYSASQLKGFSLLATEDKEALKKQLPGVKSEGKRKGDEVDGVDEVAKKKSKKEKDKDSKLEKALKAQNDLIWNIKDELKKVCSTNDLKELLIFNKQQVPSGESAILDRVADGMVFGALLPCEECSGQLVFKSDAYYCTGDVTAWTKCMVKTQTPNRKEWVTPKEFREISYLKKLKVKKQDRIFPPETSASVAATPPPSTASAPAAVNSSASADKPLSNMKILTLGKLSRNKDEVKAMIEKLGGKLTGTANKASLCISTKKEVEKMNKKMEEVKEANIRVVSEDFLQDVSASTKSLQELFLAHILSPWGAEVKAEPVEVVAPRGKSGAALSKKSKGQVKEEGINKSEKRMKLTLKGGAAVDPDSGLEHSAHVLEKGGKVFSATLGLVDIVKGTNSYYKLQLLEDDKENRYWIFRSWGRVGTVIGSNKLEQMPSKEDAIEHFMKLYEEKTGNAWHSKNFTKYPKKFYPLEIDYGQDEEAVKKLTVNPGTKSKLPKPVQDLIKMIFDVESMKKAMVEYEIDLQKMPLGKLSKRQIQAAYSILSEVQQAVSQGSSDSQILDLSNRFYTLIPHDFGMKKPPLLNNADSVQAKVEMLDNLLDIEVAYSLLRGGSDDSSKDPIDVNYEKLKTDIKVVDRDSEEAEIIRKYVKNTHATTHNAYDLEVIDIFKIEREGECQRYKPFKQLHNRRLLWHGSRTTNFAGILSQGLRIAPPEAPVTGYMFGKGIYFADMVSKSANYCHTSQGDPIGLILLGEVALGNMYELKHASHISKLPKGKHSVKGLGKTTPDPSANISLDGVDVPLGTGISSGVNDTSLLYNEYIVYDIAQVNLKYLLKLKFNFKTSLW

recombinant poly(ADP-ribose) polymerase 2 (PARP2), sequence (Q9UGN5 whole entry): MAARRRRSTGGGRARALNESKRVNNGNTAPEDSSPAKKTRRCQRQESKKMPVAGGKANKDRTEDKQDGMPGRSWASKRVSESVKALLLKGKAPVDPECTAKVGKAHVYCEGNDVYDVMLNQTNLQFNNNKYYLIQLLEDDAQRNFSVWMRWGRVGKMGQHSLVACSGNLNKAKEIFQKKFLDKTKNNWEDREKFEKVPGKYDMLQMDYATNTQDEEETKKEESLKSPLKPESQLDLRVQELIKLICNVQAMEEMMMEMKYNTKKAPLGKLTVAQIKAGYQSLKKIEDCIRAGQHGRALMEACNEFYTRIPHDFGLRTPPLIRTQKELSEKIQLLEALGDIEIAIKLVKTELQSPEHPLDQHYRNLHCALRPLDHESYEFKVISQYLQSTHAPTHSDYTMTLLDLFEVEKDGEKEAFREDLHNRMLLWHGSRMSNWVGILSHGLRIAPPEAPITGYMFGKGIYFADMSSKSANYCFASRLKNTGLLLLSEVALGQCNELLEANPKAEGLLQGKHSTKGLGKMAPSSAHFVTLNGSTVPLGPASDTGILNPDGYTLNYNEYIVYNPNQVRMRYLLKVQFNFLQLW

Row | Compound | toxicity [1] | inhibitory activity against TNKS1/2 [2] | IC50 [3] [nM] | IC50 (MDA-MB-436 cells) [nM] | IC50 [4] [nM]
1 | Cn1ncnc1[C@H]1c2n[nH]c(=O)c3cc(F)cc(c23)N[C@@H]1c1ccc(F)cc1 [Talazoparib] | toxicity similar to chemotherapy drugs such as hair loss | more potent inhibitory activity |  |  | 
2 | CCNC(=O)c1ccc(N2CCN(Cc3cc(F)c4c(c3)[nH]c(=O)c3ccnn34)CC2)c(C)n1 [Example 91, 7-((4-(2-methyl-6-(ethylcarbamoyl)pyridin-3-yl)piperazin-1-yl)methyl)-9-fluoropyrazolo[1,5-a]quinoxalin-4(5H)-one] |  |  | 627 | 2.81 | 1.39
3 | CNC(=O)c1ccc(N2CCN(Cc3cc(F)c4c(c3)[nH]c(=O)c3cc(C)nn34)CC2)c(Cl)n1 [Example 74, 7-((4-(2-chloro-6-(methylcarbamoyl)pyridin-3-yl)piperazin-1-yl)methyl)-9-fluoro-2-methylpyrazolo[1,5-a]quinoxalin-4(5H)-one] |  |  | 186 | 1.58 | 1.52
4 | CNC(=O)c1ccc(N2CCN(Cc3cc(F)c4c(c3)[nH]c(=O)c3cc(Cl)nn34)CC2)c(F)n1 [Example 88, 7-((4-(2-fluoro-6-(methylcarbamoyl)pyridin-3-yl)piperazin-1-yl)methyl)-2-chloro-9-fluoropyrazolo[1,5-a]quinoxalin-4(5H)-one] |  |  | 80.3 | 0.38 | 1.72
5 | CNC(=O)c1ccc(N2CCN(Cc3ccc4c5c(c(=O)[nH]c4c3)COC5)CC2)c(Cl)n1 [Example 3, 7-((4-(2-chloro-6-(methylcarbamoyl)pyridin-3-yl)piperazin-1-yl)methyl)-3,5-dihydrofuro[3,4-c]quinolin-4(1H)-one] |  |  | 467 | 5.01 | 1.33
6 | Cc1nc(C(N)=O)ccc1N1CCN(Cc2cc(F)c3c(c2)[nH]c(=O)c2ccnn23)CC1 [Example 89, 7-((4-(2-methyl-6-(carbamoyl)pyridin-3-yl)piperazin-1-yl)methyl)-9-fluoropyrazolo[1,5-a]quinoxalin-4(5H)-one] |  |  | 861 | 2.22 | 1.72
7 | O=C(NC1CC1)c1ccc(N2CCN(Cc3cc(F)c4c(c3)[nH]c(=O)c3cccn34)CC2)c(F)n1 [Example 67, 7-((4-(2-fluoro-6-(cyclopropylcarbamoyl)pyridin-3-yl)piperazin-1-yl)methyl)-9-fluoropyrrolo[1,2-a]quinoxalin-4(5H)-one] |  |  | 48.2 | 2.11 | 2.02
8 | CNC(=O)c1ccc(N2CCN(Cc3ccc4c(c3)[nH]c(=O)c3ccnn34)CC2)c(Cl)n1 [Example 37, 7-((4-(2-chloro-6-(methylcarbamoyl)pyridin-3-yl)piperazin-1-yl)methyl)pyrazolo[1,5-a]quinoxalin-4(5H)-one] |  |  | 46.5 | 1.07 | 0.47
9 | CNC(=O)c1ccc(N2CCN(Cc3ccc4c(c3)[nH]c(=O)c3c(C)cnn34)CC2)c(F)n1 [Example 71, 7-((4-(2-fluoro-6-(methylcarbamoyl)pyridin-3-yl)piperazin-1-yl)methyl)-3-methylpyrazolo[1,5-a]quinoxalin-4(5H)-one] |  |  | 66.4 | 0.77 | 1.35
10 | CNC(=O)c1ccc(N2CCN(Cc3ccc4c([nH]c(=O)c5cc(Cl)nn54)c3F)CC2)c(C)n1 [Example 103, 7-((4-(2-methyl-6-(methylcarbamoyl)pyridin-3-yl)piperazin-1-yl)methyl)-6-fluoro-2-chloropyrazolo[1,5-a]quinoxalin-4(5H)-one] |  |  | 1250 | 1.17 | 0.76
11 | Cc1nc(C(=O)NC2CC2)ccc1N1CCN(Cc2cc(F)c3c(c2)[nH]c(=O)c2cccn23)CC1 [Example 66, 7-((4-(2-methyl-6-(cyclopropylcarbamoyl)pyridin-3-yl)piperazin-1-yl)methyl)-9-fluoropyrrolo[1,2-a]quinoxalin-4(5H)-one] |  |  | 66.1 | 1.66 | 1.63
